Data on eight compounds can be found in article PMC4535766, “Antiprotozoal Activity Profiling of Approved Drugs: A Starting Point toward Drug Repositioning” (PLoS ONE, 2015).

Data set [1] can be described thus: in vitro. The note with it: rat. The procedure:
(§1) Drug stock solutions (10mg/ml) were in DMSO (100%). […] Selectivity index (SI) was calculated as IC50 L6 cells/IC50 parasite.

Data set [2] is described as follows: In vitro cytotoxicity with mouse peritoneal macrophages (Alamar Blue). In kind it is cell-based. On the procedure: After 96 h of incubation, the plates were inspected under an inverted microscope to assure sterility. […] The IC50 values were calculated by linear regression from the sigmoidal dose inhibition curves using SoftmaxPro software (Molecular Devices Cooperation, Sunnyvale, CA, USA).
In general terms: The colour change of resazurin is a common sign of viable cells or microbes.

Data set [3] relates to P. falciparum strain K1. Description: In vitro activity against P. falciparum, serial drug dilution assay. The conditions noted are these: for Activity against P. falciparum (in words): in vitro; for IC50: Plasmodium falciparum; for selectivity ratio: rat. On the procedure:
as §1

Data set [4] relates to axenic amastigotes of L. donovani, strain MHOM-ET-67/L82. In words: In vitro activity against L. donovani axenic amastigotes, serial drug dilution assay. In kind it is cell-based, Leishmania donovani. The note with it: for IC50: Leishmania donovani. The procedure:
as §1

Data set [5] deals with T. cruzi, strain Tulahuen C4, intracellular amastigotes. In words: microbe, parasite or virus in culture. The note with it: Trypanosoma cruzi, TULAHUEN
On the procedure: as §1

Data set [6] concerns T. b. rhodesiense strain STIB 900, trypomastigotes. Description: In vitro activity against T. b. rhodesiense, serial drug dilution assay. The conditions noted are these: for IC50: Trypanosoma brucei; for selectivity ratio: rat. The procedure: as §1
Data set [7] relates to intracellular amastigotes of L. donovani strain MHOM-ET-67/L82. Description: Activity against Leishmania donovani intracellular amastigotes in mouse peritoneal macrophages. The conditions noted are these: for IC50: Leishmania donovani, Peritoneal macrophage, in Mus musculus. An outline of the steps:
(§2)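 Axenic amastigotes grown at pH 5.4 infected mouse peritoneal macrophages for 4 h before free parasites were washed off. Next day, seven 3-fold drug dilutions (30–0.04 μg/ml) were added for 96 h. Giemsa-stained infected macrophages were counted, burden reduction was taken vs untreated controls, and IC50 came from linear regression.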

A short description of data set [8]: Cytotoxicity on macrophages infected with L. donovani. In kind it is cell-based, mouse. The note with it: mouse.
Procedure: After 24 h 1.2 x 10^5 amastigote L. donovani in 100 μl were added. The amastigotes were taken from an axenic culture grown at pH 5.4. Four hours later, the medium containing free amastigote forms was removed and replaced by fresh medium. The next day the medium was replaced by medium with or without a serial drug dilution of seven 3-fold dilution steps covering a range from 30 to 0.04 μg/ml. Parasite growth in the presence of the drug was compared to control wells. After 96 h of incubation, the medium was removed and the slides fixed with methanol for 10 min followed by staining with a 10% Giemsa solution. Infected and non-infected macrophages were counted for the control cultures and those exposed to the serial drug dilutions. The infection rates were determined. The results were expressed as a percentage reduction in parasite burden compared to control wells, and the IC50 was calculated by linear regression analysis.
Data set [9] concerns L. donovani strain MHOM-ET-67/L82 amastigotes. In words: in vitro. The note with it: mouse. An outline of the steps: as §2
Setting [10] is: axenic amastigotes, strain MHOM-ET-67/L82, means of two independent assays, read-out: IC50 L. don. axen.
Setting [11] is: Selectivity index: IC50 Cytotoxicity L6/ IC50 P. falciparum.
[12] abbreviates: 96 h, read-out: IC50 L. don. intracell.
Where [13] appears, read: macrophages infected with L. donovani, read-out: IC50 Cytotox. mac.inf.
Setting [14] is: L. donovani axenic amastigotes, read-out: L. don. axen. IC50.
The mark [15] stands for this setting: read-out: L. don. intracell IC50.

The structures appear in SMILES notation. Structures can show the parent of a compound that is named as a salt. Where two headings read alike, the source gives them in different places.

As usually defined, the IC50 is the concentration that gives 50% inhibition. `Clc1ccc(COC(Cn2ccnc2)c2ccc(Cl)cc2Cl)cc1` (stereo not shown) [Econazole (Nitrate salt), Econazole] displayed an IC50 in data set [1] (IC50 Cytotox. L6) of 15.6 µM. In data set [2] (mouse), this compound showed an IC50 at 96 h of 22.8 µM. The “Activity against P. falciparum (in words)” value in data set [3] is “active”.
Take `Clc1ccc(C(Cn2ccnc2)OCc2ccsc2Cl)c(Cl)c1` (stereo not shown) [Tioconazole]: the IC50 in [4] (setting [10]) is 9.26 µM; in [1] (IC50 Cytotox. L6), 19.5 µM; in [5] (read-out: IC50 T. cruzi), 0.064 µM; in data set [6] (read-out: IC50 T. b. rhod.), 29.9 µM; in [3] (K1, read-out: IC50 P. falc. K1), 0.63 µM; in data set [7] (setting [12]), 13.1 µM. In addition, the IC50 at 96 h in data set [2] (mouse) came out at 51.1 µM. Also, the “Activity against P. falciparum (in words)” value in data set [3] is “active”. For the same compound, the selectivity ratio in data set [3] (setting [11]) came to 31. In addition, the “Activity against L. donovani intracellular amastigotes (in words)” value in data set [7] is reported as “active with low selectivity”.
As for `CC(C)/N=c1\cc2n(-c3ccc(Cl)cc3)c3ccccc3nc-2cc1Nc1ccc(Cl)cc1` [Clofazimine], the IC50 in [4] (setting [10]) came to 22.4 µM; in data set [1] (Cytotox. L6 IC50) it was 9.97 µM; in data set [5] (read-out: T. cruzi IC50) it was 38.2 µM; in data set [6] (read-out: T. b. rhod. IC50), 7.63 µM; in [3] (K1, read-out: P. falc. IC50), 4.1 µM; in data set [7] (setting [12]) it was 0.95 µM. Further, the IC50 at 96 h turned out to be 6.34 µM in data set [8] (setting [13]) and 10.7 µM in data set [2] (mouse). In data set [9] (Selectivity index: IC50 Cytotoxicity macrophages/ IC50 L. donovani), the selectivity ratio at 96 h was approximately 10.
As for `C[C@@H]1[C@H](O)[C@@H](C)/C=C/C=C/C=C/C=C/C=C/C=C/C=C/[C@H](O[C@@H]2O[C@H](C)[C@@H](O)[C@H](N)[C@@H]2O)C[C@@H]2O[C@](O)(C[C@@H](O)C[C@@H](O)[C@H](O)CC[C@@H](O)C[C@@H](O)CC(=O)O[C@H]1C)C[C@H](O)[C@H]2C(=O)O` [Amphotericin B], the IC50 was 0.34 µM in data set [4] (setting [10]); 10.3 µM in data set [1]; 56.7 µM in data set [5] (read-out: IC50 T. cruzi); 0.76 µM in data set [6] (read-out: IC50 T. b. rhod.); 0.8 µM in data set [3] (K1, read-out: IC50 P. falc. K1); 0.31 µM in [7] (setting [12]). The selectivity ratio turned out to be 14 in data set [6] and 13 in data set [3]. The IC50 at 96 h in data set [8] (setting [13]) was 32.4 µM; in [2] (mouse), 22.4 µM. Besides, the selectivity ratio at 96 h in data set [9] is 95.
Regarding `CCN(CC)CCCCCCNc1cc(OC)cc2c(C)ccnc12` [Sitamaquine], the “Activity against L. donovani axenic amastigotes (in words)” value in [4] was “moderate activity”. The IC50 in [4] (setting [14]) stood at 13.7 µM; in data set [1] (L6 cells, IC50 Cytotox. L6, L6 cells, means of two independent assays), 32.3 µM; in [5] (read-out: T. cruzi IC50) it was 22 µM; in data set [6] (read-out: T. b. rhod. IC50), 7.39 µM; in data set [3] (K1, read-out: IC50 P. falc. K1), 0.08 µM; in data set [7] (setting [15]) it was 19.5 µM. The IC50 at 96 h is more than 29.1 µM in data set [8] (mouse peritoneal macrophages infected with L. donovani, infected macrophages, read-out: Cytotox. mac.inf. IC50) and 21.4 µM in [2] (mouse). Besides, in [3] (setting [11]), the selectivity ratio was found to be 404. Further, in data set [7], the “Activity against L. donovani intracellular amastigotes (in words)” value is “moderate activity”.
In the case of `Clc1ccccc1C(c1ccccc1)(c1ccccc1)n1ccnc1` [Clotrimazole], the midpoint of inhibition in [1] (IC50 Cytotox. L6), the IC50, lay at 2.99 µM. The same compound displayed an IC50 at 96 h in data set [2] (mouse) of 32.5 µM. The “Activity against P. falciparum (in words)” value in data set [3] is reported as “active”. Besides, the “Activity against L. donovani intracellular amastigotes (in words)” value in data set [7] is on record as “active with low selectivity”.
In the case of `N=C(N)c1ccc(OCCCCCOc2ccc(C(=N)N)cc2)cc1` [Pentamidine], the IC50 is 19.8 µM in data set [4] (setting [10]); 8.87 µM in data set [1] (IC50 Cytotox. L6); 4.44 µM in [5] (read-out: IC50 T. cruzi); 0.01 µM in data set [6] (read-out: IC50 T. b. rhod.); 2.63 µM in [7] (setting [12]). Besides, the “Activity against T. b. rhodesiense (in words)” value in data set [6] (in vitro) is recorded as “active”. The selectivity ratio in data set [6] was 887. Besides, the figures for the IC50 at 96 h in data set [8] (setting [13]) and in data set [2] (mouse) were more than 29.4 µM and 7.78 µM, respectively.
`COc1cc(NC(C)CCCN)c2ncccc2c1` (stereo not shown) [Primaquine]: the IC50 in data set [4] (setting [14]) worked out at 48.6 µM; in data set [1] it was 43.2 µM; in data set [5] (read-out: T. cruzi IC50) it was 17.9 µM; in data set [6] (read-out: T. b. rhod. IC50), 4.78 µM; in data set [7] (setting [15]) it was 28.2 µM. Further, the IC50 at 96 h was more than 38.6 µM in data set [8] (infected macrophages, read-out: Cytotox. mac.inf. IC50) and 39.7 µM in [2] (peritoneal mouse macrophages, read-out: Cytotox. PMM IC50).
